Data on 21 compounds can be found in patent publication US20090099195A1 (ASTRAZENECA AB, priority 2007, published 2009).

Assay [1] concerns the target T1, hP2X3 (human Purinergic P2X receptors subtype 3), clone B (Homo sapiens, UniProt P56373).
T1 sequence (P56373 1-397): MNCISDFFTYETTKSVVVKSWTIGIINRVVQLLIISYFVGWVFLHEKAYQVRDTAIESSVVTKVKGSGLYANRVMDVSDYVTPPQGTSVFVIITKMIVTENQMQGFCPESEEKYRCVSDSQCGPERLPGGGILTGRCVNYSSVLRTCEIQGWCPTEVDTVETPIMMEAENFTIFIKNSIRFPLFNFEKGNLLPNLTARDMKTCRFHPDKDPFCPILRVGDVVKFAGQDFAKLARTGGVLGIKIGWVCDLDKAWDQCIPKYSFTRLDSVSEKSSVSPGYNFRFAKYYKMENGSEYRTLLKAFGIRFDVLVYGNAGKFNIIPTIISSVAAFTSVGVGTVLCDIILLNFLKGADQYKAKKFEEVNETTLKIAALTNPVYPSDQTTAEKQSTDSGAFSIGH
Put plainly: hP2X3 FLIPR calcium (Fluo-4) antagonist assay, clone B. The conditions noted are these: Human P2X3 FLIPR Clone B IC50 (nM), RLE cells expressing hP2X3 clone B (NM_002559); agonist 500 nM α,β-methylene-ATP.

In assay [2] the target is T2, rat P2X2/3 (rat P2X3 co-expressed with rat P2X2) (Rattus norvegicus, UniProt P49653+P49654).
T2 sequence (P49654 1-397): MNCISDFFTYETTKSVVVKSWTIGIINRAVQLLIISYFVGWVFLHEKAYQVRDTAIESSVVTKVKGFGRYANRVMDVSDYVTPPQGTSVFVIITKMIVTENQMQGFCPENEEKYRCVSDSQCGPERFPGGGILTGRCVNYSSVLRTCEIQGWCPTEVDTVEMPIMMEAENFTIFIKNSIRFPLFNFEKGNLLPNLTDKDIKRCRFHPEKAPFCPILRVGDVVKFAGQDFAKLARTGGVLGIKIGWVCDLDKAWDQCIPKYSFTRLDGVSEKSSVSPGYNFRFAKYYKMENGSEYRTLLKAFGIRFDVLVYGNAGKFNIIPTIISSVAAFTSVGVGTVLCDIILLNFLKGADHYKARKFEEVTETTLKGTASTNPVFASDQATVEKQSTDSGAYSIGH
T2 sequence (P49653 1-472): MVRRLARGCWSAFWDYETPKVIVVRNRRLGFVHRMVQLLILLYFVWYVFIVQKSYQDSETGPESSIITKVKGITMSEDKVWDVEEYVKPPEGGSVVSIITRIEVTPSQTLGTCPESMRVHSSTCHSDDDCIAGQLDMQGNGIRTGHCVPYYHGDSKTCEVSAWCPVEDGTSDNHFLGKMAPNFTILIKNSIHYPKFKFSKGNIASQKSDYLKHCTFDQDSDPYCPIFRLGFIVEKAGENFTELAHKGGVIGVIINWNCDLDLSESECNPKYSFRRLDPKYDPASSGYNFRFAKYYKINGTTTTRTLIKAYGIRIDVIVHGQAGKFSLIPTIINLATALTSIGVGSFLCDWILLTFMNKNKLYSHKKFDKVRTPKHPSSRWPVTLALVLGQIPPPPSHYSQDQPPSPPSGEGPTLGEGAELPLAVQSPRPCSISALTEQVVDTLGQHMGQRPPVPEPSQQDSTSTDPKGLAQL
The experiment in a line: rat P2X2/3 FLIPR calcium (Fluo-4) antagonist assay. The conditions noted are these: Rat P2X2/3 FLIPR Mean IC50 (nM), HEK-TREX cells, tetracycline-induced rat P2X3 with constitutive rat P2X2; agonist 500 nM α,β-methylene-ATP.
Method: The assay used a calcium indicator dye (Fluo-4) that emits fluorescence, the intensity of which is related to the concentration of calcium that entered the cell when P2X3 was activated and the channel opened. Activation of hP2X3 or rat P2X3 and rat P2X2/3 (from the coexpression of rat P2X3 and rat P2×2) is elicited the by P2X3 agonist α,β methylene-ATP (Sigma M6517), and the resulting fluorescence is measured with a FLIPR II™ instrument (Molecular Devices). Compounds are tested for their ability to inhibit the agonist-induced fluorescent signal.
For the rat P2X2/3 HEK-TREX cells, induction of the rat P2X3 expression is used to generate the rat P2X2/3 channels in HEK-TREX cells and performed by addition of 1 μg/mL tetracycline (Invitrogen) 24 h prior to compounds testing to the HEK-TREX expressing the rat P2X2 constitutively. On the day of the experiment, the cells and test compounds are prepared as follows. […] After preparing the compounds, the medium is removed from the cell plates by inversion. A loading solution of 30 μL assay buffer containing 4 μM of the calcium indicator dye FLUO-4 AM (Molecular Probes F14202) is added to each well using a Multidrop (Labsystems). […] The incubation is terminated by washing the cells four times in assay buffer using a Skatron Embla (Molecular Devices), and 25 μL of assay buffer was left in each well. Cell plates are then transferred to the FLIPR. Experiments are initiated by measuring a baseline fluorescence reading for 10 seconds, followed by the addition of 12.5 μL of cpds and data sampling for a total 280 seconds. The experiments are terminated by addition of 12.5 μL of a reference agonist (500 nM α,β-methylene-ATP) or buffer, producing a final assay volume of 50 μL followed by data sampling for an additional 280 seconds.
In P2X3 antagonist experiments (human and rat assays) data are analysed as normalised maximal peak fluorescence monitored following agonist addition and calculated as percent of relative fluorescent counts from control agonist. The dose-response antagonist inhibition curves are analyzed in a 4-parameter sigmoidal fit using a non-linear curve-fitting program (XLfit version 5.0.6, ID Business Solutions Limited, Guildford, UK).

Turning to `CC(=O)N1CCN(c2nc3c(c(N4CCCC4c4cnc5ccccc5c4)n2)CN(C(C)C)C3=O)CC1` (single isomer, unassigned) [Example 282, 4-(4-acetylpiperazin-1-yl)-8-propan-2-yl-2-(2-quinolin-3-ylpyrrolidin-1-yl)-3,5,8-triazabicyclo[4.3.0]nona-1,3,5-trien-7-one], the half-maximal inhibitory concentration (IC50) stood at 550 nM in assay [1] and 2530 nM in assay [2]. As to `CC(=O)N1CCN(c2nc3c(c(N4CCCC4c4cnc5ccccc5c4)n2)CN(C(C)C)C3=O)CC1` (single isomer, unassigned) [Example 283, 4-(4-acetylpiperazin-1-yl)-8-propan-2-yl-2-(2-quinolin-3-ylpyrrolidin-1-yl)-3,5,8-triazabicyclo[4.3.0]nona-1,3,5-trien-7-one], the results for the IC50 in assay [1] and in assay [2] were 87 nM and 253 nM, respectively.

With `COc1ccc(CC2CCCN2c2nc(N3CCN(C(C)=O)CC3)nc3c2CN(C(C)C)C3=O)cc1` (single isomer, unassigned) [Example 287, 2-(4-acetylpiperazin-1-yl)-6-isopropyl-4-[2-[(4-methoxyphenyl)methyl]pyrrolidin-1-yl]-5H-pyrrolo[3,4-d]pyrimidin-7-one], the half-inhibitory concentration (IC50) in assay [1] came out at 53 nM; in assay [2] it was 1500 nM.

As to `CC(=O)N1CCN(c2nc(N[C@H](C)c3cnc4ccccc4c3)c3c(n2)C(=O)N(C(C)C)C3)CC1` (single isomer, unassigned) [Example 344], the IC50 worked out at 35 nM in assay [1] and 234 nM in assay [2]. As for `CC(=O)N1CCN(c2nc(N[C@@H](C)c3cnc4ccccc4c3)c3c(n2)C(=O)N(C(C)C)C3)CC1` (single isomer, unassigned) [Example 345], the IC50 in assay [1] turned out to be 66 nM; in assay [2] it was 1910 nM. For `CCC(C)N1Cc2c(NCc3cnn(-c4ccccc4)c3)nc(N3CCN(C(C)=O)CC3)nc2C1=O` (single isomer, unassigned; (+)) [Example 306, (+)-4-(4-acetylpiperazin-1-yl)-8-butan-2-yl-2-[(1-phenylpyrazol-4-yl)methylamino]-3,5,8-triazabicyclo[4.3.0]nona-1,3,5-trien-7-one], the half-inhibitory concentration (IC50) in assay [1] is 34 nM; in assay [2], 3970 nM.

`CCC(C)N1Cc2c(NCc3cnc4ccccc4c3)nc(N3CCN(C(C)=O)CC3)nc2C1=O` (single isomer, unassigned; (+)) [Example 308, (+)-2-(4-acetylpiperazin-1-yl)-4-(3-quinolylmethylamino)-6-sec-butyl-5H-pyrrolo[3,4-d]pyrimidin-7-one]: the concentration for half-maximal inhibition (IC50) in assay [1] was 20 nM; in assay [2] it was 10300 nM. On to `CCC(C)N1Cc2c(NCc3cnn(-c4ccccc4)c3)nc(N3CCN(C(C)=O)CC3)nc2C1=O` (single isomer, unassigned; (-)) [Example 307, (−)-4-(4-acetylpiperazin-1-yl)-8-butan-2-yl-2-[(1-phenylpyrazol-4-yl)methylamino]-3,5,8-triazabicyclo[4.3.0]nona-1,3,5-trien-7-one], for which the IC50 in assay [1] was determined as 150 nM; in assay [2] it was 12000 nM.

Take `CCC(C)N1Cc2c(NCc3cc4ccccc4cn3)nc(N3CCN(C(C)=O)CC3)nc2C1=O` (single isomer, unassigned; (-)) [Example 311, (−)-2-(4-acetylpiperazin-1-yl)-4-(3-isoquinolylmethylamino)-6-sec-butyl-5H-pyrrolo[3,4-d]pyrimidin-7-one]: the IC50 in assay [1] came out at 28 nM; in assay [2], 1680 nM.

For `CC(=O)N1CCN(c2nc(NC(C)(C)Cc3ccc(F)cc3)c3c(n2)C(=O)N(C(C)C)C3)CC1` [Example 14, 2-(4-acetylpiperazin-1-yl)-4-{[2-(4-fluorophenyl)-1,1-dimethylethyl]amino}-6-isopropyl-5,6-dihydro-7H-pyrrolo[3,4-d]pyrimidin-7-one], the IC50 in assay [1] was 110 nM; in assay [2], 18500 nM. `CC(=O)N1CCN(c2nc3c(c(N4CCCC4Cc4ccc(C)cc4)n2)CN(C(C)C)C3=O)CC1` (stereo not shown) [Example 47, 2-(4-acetylpiperazin-1-yl)-6-isopropyl-4-[2-(4-methylbenzyl)pyrrolidin-1-yl]-5,6-dihydro-7H-pyrrolo[3,4-d]pyrimidin-7-one]: the values for the IC50 in assay [1] and in assay [2] were 130 nM and 2680 nM, respectively. For `CC(=O)N1CCN(c2nc(NC(c3ccccc3)c3ccccc3)c3c(n2)C(=O)N(C(C)C)C3)CC1` [Example 72, 2-(4-Acetyl-piperazin-1-yl)-4-(benzhydryl-amino)-6-isopropyl-5,6-dihydro-pyrrolo[3,4-d]pyrimidin-7-one], the half-maximal inhibitory concentration (IC50) in assay [2] was found to be 2110 nM.

As for `CC(=O)N1CCN(c2nc(N[C@H](C)c3ccc(OC(F)F)cc3)c3c(n2)C(=O)N(C(C)C)C3)CC1` [Example 114, 2-(4-acetylpiperazin-1-yl)-4-({(1R)-1-[4-(difluoromethoxy)phenyl]ethyl}amino)-6-isopropyl-5,6-dihydro-7H-pyrrolo[3,4-d]pyrimidin-7-one], the IC50 was determined as 71 nM in assay [1] and 3300 nM in assay [2]. As to `CC(=O)N1CCN(c2nc3c(c(N4CCC[C@@H]4Cc4ccccc4)n2)CN(C(C)C)C3=O)CC1` [Example 116, 2-(4-acetylpiperazin-1-yl)-4-[(2R)-2-benzylpyrrolidin-1-yl]-6-isopropyl-5,6-dihydro-7H-pyrrolo[3,4-d]pyrimidin-7-one], the IC50 in assay [1] was 57 nM; in assay [2], 10300 nM. For `CC(C)N1Cc2c(NC3c4cccnc4CCc4c(F)cccc43)nc(N(C)CCN(C)C)nc2C1=O` (stereo not shown) [Example 121, 2-[[2-(dimethylamino)ethyl](methyl)amino]-4-[(9-fluoro-10,11-dihydro-5H-benzo[4,5]cyclohepta[1,2-b]pyridin-5-yl)amino]-6-isopropyl-5,6-dihydro-7H-pyrrolo[3,4-d]pyrimidin-7-one] the same measures were 150 nM and 4580 nM. Turning to `CC(=O)N1CCN(c2nc(NCc3ccc(OC(F)(F)F)cc3C)c3c(n2)C(=O)N(C(C)C)C3)CC1` [Example 122, 2-(4-acetylpiperazin-1-yl)-6-isopropyl-4-{[2-methyl-4-(trifluoromethoxy)benzyl]amino}-5,6-dihydro-7H-pyrrolo[3,4-d]pyrimidin-7-one], the values for the IC50 in assay [1] and in assay [2] were 130 nM and 6320 nM, respectively. The matching figures for `CC(=O)N1CCN(c2nc(NC3(c4ccc(Cl)cc4)CC3)c3c(n2)C(=O)N(C(C)C)C3)CC1` [Example 130]: 2300 nM and 13300 nM.

As for `COc1cccc(C2CCCN2c2nc(N3CCN(C(C)=O)CC3)nc3c2CN(C(C)C)C3=O)c1` (stereo not shown) [Example 131, 2-(4-Acetylpiperazin-1-yl)-6-isopropyl-4-(2-(3-methoxyphenyl)pyrrolidin-1-yl)-5H-pyrrolo[3,4-d]pyrimidin-7(6H)-one], the IC50 in assay [1] came to 6000 nM; in assay [2], 40000 nM. On to `CC(=O)N1CCN(c2nc3c(c(N4CCCC4c4cccc(Cl)c4)n2)CN(C(C)C)C3=O)CC1` (stereo not shown) [Example 132, 2-(4-Acetylpiperazin-1-yl)-4-(2-(3-chlorophenyl)pyrrolidin-1-yl)-6-isopropyl-5H-pyrrolo[3,4-d]pyrimidin-7(6H)-one], for which the IC50 in assay [1] was 1400 nM; in assay [2], 13300 nM. With `CC(C)N1Cc2c(NC(C)(C)Cc3ccc(F)cc3)nc(N3CCN4C(=O)CCC4C3)nc2C1=O` (stereo not shown) [Example 134, 4-(1-(4-Fluorophenyl)-2-methylpropan-2-ylamino)-6-isopropyl-2-(6-oxohexahydro[1,2-a]pyrazin-2(1H)-yl)-5H-pyrrolo[3,4-d]pyrimidin-7(6H)-one], the IC50 in assay [1] came to 490 nM; in assay [2] it was 49800 nM. As to `COc1cc(OC(F)(F)F)ccc1CNc1nc(N2CCN(C(C)=O)CC2)nc2c1CN(C(C)C)C2=O` [Example 232, 2-(4-acetylpiperazin-1-yl)-6-isopropyl-4-(2-methoxy-4-(trifluoromethoxy)benzylamino)-5H-pyrrolo[3,4-d]pyrimidin-7(6H)-one], the IC50 in assay [2] turned out to be 7840 nM.
